According to patent US20240197869A1, “HYPERACTIVATORS OF MAMMALIAN DENDRITIC CELLS” (Corner Therapeutics, Inc., priority 2021, published 2024):
“Also recorded” adds a separate entry of the source.

Tests used:
[1] = tested on: canine peripheral blood mononuclear cells (PBMCs); experiment: IL-1β secretion by canine PBMCs (ELISA); type: cell-based; conditions: lipid 82.5 μM combined with R848 1 μg/mL, 2 days
Protocol: (§1) Isolation of PBMCs from Whole Blood. PBMCs were isolated from whole blood using density gradient centrifugation with Ficoll-Paque PLUS (Cytivia). Whole blood was diluted 1:1 with PBS, layered on top of Ficoll-Paque PLUS and centrifuged at 1000×g for 30 minutes at room temperature. PBMCs were collected, washed twice in PBS, and incubated with Ack lysis buffer (Lonza) to remove any remaining red blood cells.
(§2) Cell Culture and Stimulation. […] Cells were plated at 1×10^5 (canine cells) or 1×10^6 (human cells) per well in 96-well flat bottom tissue culture plates. Lyophilized Vaccigrade R848 (Invivogen) was reconstituted and diluted according to manufacturer's recommendations and added to cells at a final concentration of 1 μg/mL.
Quantification of Cytokine Secretion. IL-1β secretion from human PBMCs was assessed using one of the following kits: ELISA MAX Deluxe Set Human IL-1β kit (Biolegend), Invitrogen Human IL-1β kit, or the Lumit™ Human IL-1β Immunoassay (Promega). IFNγ secretion from human PBMCs was assessed using the ELISA MAX Deluxe Set Human IFNγ (Biolegend) and TNFα secretion from human PBMCs was assessed using the Human TNFα Uncoated ELISA kit (Invitrogen). […] IL-1β secretion from canine PBMCs was assessed using the Canine IL-1β/IL-1F2 DuoSet ELISA (R&D) according to manufacturer's instructions with the following modifications: i) total sample+buffer volume for incubation was reduced from 100 μL to 50 μL; ii) sample incubation was completed overnight at 4° C. on an orbital shaker. For all ELISAs, absorbance was measured at 450 nm, with a 570 nm correction, using a Spectramax M5e plate reader (Molecular Devices). For Lumit™ assays, luminescence was measured on all wavelengths using a Spectramax M5e plate reader (Molecular Devices) with an integration time of 500 ms. […]

[2] = tested on: canine peripheral blood mononuclear cells (PBMCs); experiment: Viability of canine PBMCs (CellTiter-Glo); type: cell-based; conditions: lipid combined with R848, 2 days, relative to R848 alone
Protocol: as §1, §2
Quantification of Cell Viability.

[3] = tested on: human memory CD4+ T cells; experiment: Human moDC coculture with memory CD4 T cells: cytokine secretion; type: cell-based; conditions: moDC treated with R848 + lipid; limiting anti-CD3; 2 days after T cell addition
Excerpt: Human moDC coculture with memory CD4 T cells. Human monocytes were isolated from leukopheresis products using Miltenyi StraightFrom LeukoPak CD14 microbeads as directed by manufacturer. Custom PBMC isolation microbead kits from Miltenyi were used to separate PBMCs from red blood cells and granulocytes from the same blood products. After PBMC purification, Miltenyi human memory CD4+ T cell isolation kits were used to negatively select the CD45RO+ fraction. Cells were cryogenically stored until ready for use in experiments.
Human monocytes were differentiated into dendritic cells as previously described using recombinant human GM-CSF and IL-4 for 6 days. moDCs were plated in R10 media at 5E4 cells/well into 96-well U-bottom microplates for hyperactivations. […] T cell stimulating anti-CD3 antibody was added into the culture (with or without blocking anti-IL-1beta antibody) prior to T cell addition. Autologous frozen memory CD4 T cells were thawed, resuspended in R10 media and added at 2.5×10^5 cells/well (ratio 1:5, DC:T cell). After two days incubation, cell culture supernatant was collected and used for measuring cytokine secretion. Commercially available kits such as Biolegend LegendPlex kits were used as directed by manufacturer's protocol to quantify cytokines of interest.
Four donors were tested with each experimental condition tested in triplicate. […]

[4] = tested on: murine, FLT3L-differentiated DC; experiment: Cytokine secretion by murine FLT3L-differentiated BMDC (ELISA); type: cell-based, mouse
Protocol: (§3) Murine FLT3L-differentiated, bone marrow-derived DC (BMDC) generation. Leg femur and tibia were removed from mice, cut with scissors and flushed into sterile tubes. Bone marrow suspension was treated with ACK for 1 minute, then passed through a 40 um cell strainer. Cells were counted and resuspended in media consisting of complete IMDM containing 10% FBS, penicillin and streptomycin, and supplements of L-glutamine and sodium pyruvate (I10). Cells were then plated at 5E6 bone marrow cells per well in a P12 plate. Recombinant mouse FLT3L (Miltenyi) was added to cultures at 200 ng/mL. Differentiated cells were used for subsequent assays on day 9. The efficiency of differentiation was monitored by flow cytometry using BD Symphony A3, and CD11c+MHC-II+ cells were routinely above 80% of living cells. For each experiment, five mice were used to collect BM and to generate DCs.
(§4) Murine FLT3L-differentiated BMDC (FLT3L-BMDC) hyperactivation. BMDCs were washed with PBS and re-plated in FLT3L-containing 110 at a concentration of 1.5×10^5 cells/well. Stimuli were added to cultures at indicated concentrations for a final volume of 200 uL/well. Twenty-four hours post-stimulation, cell culture supernatant was collected after centrifugation and stored at −20° C. to measure cytokine secretion. IL-1b, IL-6, IL-12p40, and TNF-alpha ELISA were performed using eBioscience Ready-SET-Go! (now ThermoFisher) ELISA kits according to the manufacturer's protocols. Cell viability was measured using Promega's Cell Titer-Glo reagent kits.

[5] = tested on: murine, FLT3L-differentiated cDC1 and cDC2 cells; experiment: Flow cytometry of surface markers on murine cDC1 and cDC2; type: cell-based, mouse
Protocol: as §3, §4
Flow cytometry. After FcR blockade, treated FLT3L-BMDCs were washed and stained in PBS with Live Dead Fixable dye (ThermoFisher) for 20 minutes at 4° C. Cells were then washed again and stained for 20 minutes at 4° C. in MACS buffer (PBS with 1% FCS and 2 mM EDTA) containing the following fluorescently conjugated antibodies purchased from BioLegend: anti-CD11c, anti-I-A/I-E, anti-H-2Kb, anti-SIRPa, anti-CD24, anti-CD40, anti-CD45R, anti-CXCL16 and anti-CCR7. Data were acquired on a BD FACS Symphony (Becton-Dickenson). Data were analyzed using FlowJo software (Tree Star). […]

[6] = R848 + 41 uM lipid in PBS or KP407, 24 h

CCCCCCCCCCCCCCCCCCCCCC(=O)OC[C@@H](O)COP(=O)([O-])OCC[N+](C)(C)C [22:0 LYSO PC, 1-behenoyl-2-hydroxy-sn-glycero-3-phosphocholine]
IL-1β secretion (in words) [1]: comparable or higher levels of IL-1β compared to every other stimuli tested; also recorded: hyperactivated to a greater extent
relative cell viability (in words) [2]: remain viable
relative cell viability (in words) ([2]; listed as 22:0 LYSO): did not significantly reduce relative cell viability
IFN-gamma (Th1 response) from cocultured memory CD4 T cells (in words) [3]: significantly stronger Th1 response
IL-1beta secretion (in words) ([4]; 22:0 Lyso PC without R848): failed to induce IL-1beta secretion
IL-6 secretion (in words) [4, 6]: high TNF-alpha and IL-6 secretion
TNF-alpha secretion (in words) [4, 6]: high TNF-alpha and IL-6 secretion
TNF-alpha secretion (in words) ([4]; R848 + lipid in KP407): small boost in TNF-alpha secretion
lipid concentration superior in supporting IL-1beta secretion while retaining cell viability ([4]; formulated in KP407 + R848): 41 µM
IL-1beta secretion (in words) ([4]; lipid formulated in 5% KP407 + R848 1 ug/mL, 24 h): induced IL-1beta secretion in a dose dependent manner
IL-1beta secretion (in words) ([4]; lipid resuspended in PBS, different concentrations, + R848 1 ug/mL, 24 h): unable to induce IL-1beta secretion
CD40 expression (in words) ([5]; R848 + 41 uM lipid in 5% KP407, cDC1 and cDC2): strongly enhanced
MHC class I expression (in words) ([5]; R848 + lipid vs R848 alone): enhanced MHC class I expression on both cDC1 and cDC2 subsets
CCR7 expression (in words) ([5]; cDC1, R848 + lipid in KP407 formulation): increased their CCR7 expression significantly compared to R848 alone
